For assay [1], the system named is human hepatic cell line (HepG2 ATCC HB-8065). As to the kind of experiment: Human cell viability assay (CellTiter-Glo). As to conditions: Homo sapiens, HepG2, 24 h, read-out: IC50 (μg/mL) HepG2. On the technique in general: In ATP-based viability assays light output follows the ATP content of the culture.
Assay [2] deals with Acinetobacter baumannii NCTC 13420. In words: MIC, broth microdilution (CLSI) versus planktonic bacteria. As to conditions: NCTC13420; Acinetobacter baumannii NCTC 13420; 16-20 h; mode of three independent experiments; read-out: MIC, Ab NCTC 13420. The format is cell-based.
In assay [3] the test system is Acinetobacter baumannii ATCC 19606. Described as above. The format is cell-based. The conditions noted are these: ATCC19606; Acinetobacter baumannii ATCC 19606; 16-20 h; mode of three independent experiments; read-out: MIC, Ab ATCC 19606.
The test system of assay [4] is Pseudomonas aeruginosa ATCC 27853. The description is as above. As to conditions: ATCC27853; Pseudomonas aeruginosa ATCC 27853; 16-20 h; mode of three independent experiments; read-out: MIC, Pa ATCC 27853. It counts as cell-based.
Assay [5] has as its system E. coli ATCC BAA-2452. Described as above. The format is cell-based. The conditions noted are these: Escherichia coli ATCC BAA-2452; 16-20 h; mode of three independent experiments; read-out: MIC, Ec ATCC BAA 2452.
Assay [6] has as its system Staphylococcus aureus ATCC 29213. The assay is described as above. The format is cell-based. The conditions noted are these: ATCC29213; Staphylococcus aureus ATCC 29213; 16-20 h; mode of three independent experiments; read-out: MIC, Sa ATCC 29213.
Assay [7] has as its system E. coli MG1655 S83L. It counts as cell-based, Escherichia coli. As to conditions: compared to the isogenic parent strain E. coli MG1655; S83L mutation on DNA gyrase subunit GyrA.
Assay [8] relates to Streptococcus pneumoniae ATCC 49619. In words: MIC, broth microdilution (CLSI) versus planktonic bacteria. It counts as cell-based. The conditions noted are these: ATCC49619; Streptococcus pneumoniae ATCC 49619; 16-20 h; mode of three independent experiments; read-out: MIC, Sp ATCC 49619. Background: Dilution methods test growth across graded concentrations, often in twofold steps.

Assay [9] concerns E. coli MG1655. Described as above. The conditions noted are these: Escherichia coli, MG1655, read-out: MIC, Ec MG1655 WT. It counts as cell-based, Escherichia coli.
The test system of assay [10] is Escherichia coli ATCC 25922. Described as above. It counts as cell-based. As to conditions: ATCC25922; Escherichia coli ATCC 25922; 16-20 h; mode of three independent experiments; read-out: MIC, Ec ATCC 25922.
Assay [11] deals with Haemophilus influenzae ATCC 49247. The description is as above. The conditions noted are these: ATCC49247; Haemophilus influenzae ATCC 49247; 16-20 h; mode of three independent experiments; read-out: MIC, Hi ATCC 49247. The format is cell-based.
Assay [12] has as its system E. coli MG1655 D87G. It counts as cell-based, Escherichia coli. The conditions noted are these: compared to the isogenic parent strain E. coli MG1655; D87G mutation on DNA gyrase subunit GyrA.
Assay [13] relates to E. coli NCTC 13476. As to the kind of experiment: MIC, broth microdilution (CLSI) versus planktonic bacteria. The format is cell-based. As to conditions: NCTC13476; Escherichia coli NCTC 13476; 16-20 h; mode of three independent experiments; read-out: MIC, Ec NCTC 13476.
For assay [14], the system named is Enterobacter cloacae NCTC 13406. Described as above. It counts as cell-based. The conditions noted are these: NCTC13406; Enterobacter cloacae NCTC 13406; 16-20 h; mode of three independent experiments; read-out: MIC, Ecl NCTC 13406.

Converted amounts (≈) assume the structure as drawn.

Consider `O=C1COc2ccc(N3C(=O)O[C@H]4C[C@@H](NCCCn5c(=O)cnc6cc(F)c(F)cc65)CC[C@@H]43)nc2N1` [Compound 90, 1-(3-{[(3aS,6S,7aS)-2-oxo-3-{3-oxo-2H,3H,4H-pyrido[3,2-b][1,4]oxazin-6-yl}-octahydro-1,3-benzoxazol-6-yl]amino}propyl)-6,7-difluoro-1,2-dihydroquinoxalin-2-one], for which the IC50 in assay [1] was 10 to 100 µg/mL (≈ 19 to 190 µM). The MIC is less than 1 µg/mL in assay [2]; less than 1 µg/mL in assay [3]; 1 to 10 µg/mL (≈ 1.9 to 19 µM) in assay [4]; less than 1 µg/mL in assay [5]; less than 1 µg/mL in [6]; less than 1 µg/mL in [8]. The MIC in assay [9], in [10], in assay [11], in assay [13] and in [14] was less than 1 µg/mL each time. Further, the “Fold increase in MIC, E. coli MG1655 S83L” value in [7] is recorded as 2 fold. Besides, in assay [12], the “Fold increase in MIC, E. coli MG1655 D87G” value came out at 4 fold.

Take `O=C1COc2ccc(N3C(=O)O[C@H]4C[C@@H](NCCCn5c(=O)cnc6ccc(F)cc65)CC[C@@H]43)nc2N1` [Compound 92, 1-(3-{[(3aS,6S,7aS)-2-oxo-3-{3-oxo-2H,3H,4H-pyrido[3,2-b][1,4]oxazin-6-yl}-octahydro-1,3-benzoxazol-6-yl]amino}propyl)-7-fluoro-1,2-dihydroquinoxalin-2-one]: the IC50 in assay [1] is more than 100 µg/mL. Besides, the MIC in [2], in assay [3], in assay [4], in [5], in assay [6] and in assay [8] was less than 1 µg/mL throughout. For the same molecule, the MIC in assay [9], in [10], in assay [11], in [13] and in assay [14] was less than 1 µg/mL throughout. In addition, in assay [7], the “Fold increase in MIC, E. coli MG1655 S83L” value came out at 1 fold. In addition, the “Fold increase in MIC, E. coli MG1655 D87G” value in assay [12] was determined as 1 fold.

`O=C1COc2ccc(N3C(=O)O[C@H]4C[C@@H](NCCCn5c(=O)ccc6ncc(OC(F)F)cc65)CC[C@@H]43)nc2N1` [Compound 93, 1-(3-{[(3aS,6S,7aS)-2-oxo-3-{3-oxo-2H,3H,4H-pyrido[3,2-b][1,4]oxazin-6-yl}-octahydro-1,3-benzoxazol-6-yl]amino}propyl)-7-(difluoromethoxy)-1,2-dihydro-1,5-naphthyridin-2-one]: the IC50 in [1] is more than 100 µg/mL. In addition, the MIC in [2], in [3], in assay [4], in assay [5], in assay [6] and in [8] was less than 1 µg/mL throughout. The MIC in [9] is less than 1 µg/mL; in assay [10], less than 1 µg/mL; in assay [11], less than 1 µg/mL; in assay [13] it was less than 1 µg/mL; in [14], 1 to 10 µg/mL (≈ 1.8 to 18 µM). Besides, the “Fold increase in MIC, E. coli MG1655 S83L” value in assay [7] came to 1 fold. In assay [12], the “Fold increase in MIC, E. coli MG1655 D87G” value is recorded as 1 fold.

Regarding `COc1cnc2ccc(=O)n(CCCN[C@H]3CC[C@H]4[C@H](C3)OC(=O)N4c3ccc4c(n3)NC(=O)CO4)c2c1` [Compound 99, 1-(3-{[(3aS,6S,7aS)-2-oxo-3-{3-oxo-2H,3H,4H-pyrido[3,2-b][1,4]oxazin-6-yl}-octahydro-1,3-benzoxazol-6-yl]amino}propyl)-7-methoxy-1,2-dihydro-1,5-naphthyridin-2-one], in assay [1], the IC50 lay in the range of 10 to 100 µg/mL (≈ 19.2 to 192 µM). The MIC is less than 1 µg/mL in [2]; 1 to 10 µg/mL (≈ 1.92 to 19.2 µM) in assay [3]; 1 to 10 µg/mL (≈ 1.92 to 19.2 µM) in assay [4]; less than 1 µg/mL in assay [5]; less than 1 µg/mL in assay [6]; less than 1 µg/mL in [8]. Moreover, the MIC is less than 1 µg/mL in [9]; less than 1 µg/mL in assay [10]; less than 1 µg/mL in assay [11]; less than 1 µg/mL in assay [13]; 1 to 10 µg/mL (≈ 1.92 to 19.2 µM) in assay [14]. Further, the “Fold increase in MIC, E. coli MG1655 S83L” value in assay [7] is listed as 0.5 fold. In assay [12], the “Fold increase in MIC, E. coli MG1655 D87G” value was found to be 1 fold.

The values above are taken from patent US10487093B2, “Heterocyclic compounds, in particular 2-oxo-4,4,5,5,6,6,7,7-octahydrobenzoxazole derivatives, and their use as antibacterial compounds” (priority 2016, dated 2019).
